# Measurements as given in US12304881B2, “Trientine tetrahydrochloride and a method of preparation and a pharmaceutical composition thereof” (Yu-Jet Co., Ltd., priority 2022, dated 2025).
# Structures can show the parent of a compound that is named as a salt.
# Experiments:
# [1] = as disclosed in CN102924289B; cited from earlier work
SMILES,"stability, compared between hydrochloride salts [1]",stability (impurity by TLC) in words
"NCCNCCNCCN [TETA·2HCl, trientine dihydrochloride]",worse than that of TETA·4HCl,
"NCCNCCNCCN [TETA·4HCl Form N, trientine tetrahydrochloride]",,good enough
